Reference: US20020119958A1, “Therapeutic agent for hyperlipidemia” (priority 2001, published 2002)

Assays:
[1] = tested on: CYP7A gene expression in HepG2 cells; assay: CYP7A mRNA in HepG2 cells by quantitative RT-PCR; assay type: cell-based, human; conditions: CDCA 20 μM + compound A 10 μM, 37° C., 16 h
Protocol: (§1) The cultured HepG2 cells were treated under the following three conditions at 37° C. for 16 h.
(§2) 1) no treatment with CDCA, no treatment with compound A
(§3) 2) treatment with CDCA (20 μM), no treatment with compound A
3) treatment with CDCA (20 μM), treatment with compound A (10 μM)
RNA was prepared from the cells after the treatment and the amount of CYP7A mRNA contained in the RNA was measured by quantitative RT-PCR. For the quantitative RT-PCR, TaqMan One Step Gold reverse transcriptase PCR kit of Applied Biosystems/PerkinElmer was used. For quantification, the following primers (i)-(iii) derived from human CYP7A gene sequence were used.

[2] = Concentration in blood after single oral administration to hamster; assay type: in vivo; conditions: male, GS, single oral 100 mg/kg, serum
Protocol: The compound A was forcibly given to hamster by single oral administration and measured for shifts in the concentration in blood. The test conditions were as follows. animal: male GS hamster (purchased from Japan SLC), 9 weeks old administration liquid: 20 mg/ml 0.5% methylcellulose suspension diet: not fasted dose: 100 mg/5 ml/kg (p.o.) administration: forcible single oral administration using oral sound blood sampling time: 5, 15, 30, 60, 180, 360 min after administration serum preparation: blood was drawn from the orbital vein and centrifuged using a Separapid tube (coagulation promoting spitz tube containing serum separating agent) to give serum.
An internal standard substance (CV-5386, 0.1 μg) was added to serum (0.1 ml) and admixed. Methanol (0.3 ml) was added and the mixture was stirred. The mixture was centrifuged at 10,000 rpm (FORCE-7 Denver Instrument Company) for 2 min and the resulting supernatant was subjected to centrifugal filtration using Centricut. The obtained filtrate was analyzed by LC-ESI-MS/MS.

[3] = tested on: CYP7A protein in HepG2 cells; assay: CYP7A protein in HepG2 cells by Western blot; assay type: cell-based, human; conditions: CDCA 20 μM, compound A 0.03-10 μM, 16 h
Protocol: as §1, §2, §3
3) treatment with CDCA (20 μM), treatment with compound A (0.03, 0.1, 0.3, 1, 3, 10 μM)
After the treatment, the cells were recovered and lysed in a lysis buffer (125 mM Tris HCl (pH 8.0), 2 mM CaCl2, 2% Triton X-100) to prepare a cell lysate. The cell lysate was fractionated by SDS-PAGE, and the protein was transferred onto a PVDF membrane. The CYP7A protein was detected by Western blot analysis using an anti CYP7A antibody and an HRP (horse-radish peroxidase) conjugated 2nd antibody.

HepG2 cells = assay: Excretion of bile acid from HepG2 cells; assay type: cell-based, human; conditions: compound A 1, 10 μM, 24 h
Protocol: The cultured HepG2 cells were plated in a 24-well culture dish at 1.5×10^5 cells/ml, 0.5 ml/well. Four days later, the medium was exchanged to a new one and ^14C-labeled cholesterol (18.5 kBq/well) was added, which was cultured for 24 h (bile acid in the cells was labeled thereby). After the culture, the medium was exchanged to a new one and compound A (final concentration 1, 10 μM) was added. After 24 hours of culture, the medium was recovered and the amount of bile acid excreted into the medium was measured to examine the influence of compound A on bile acid excretion. The amount of excreted bile acid was corrected based on the protein amount of the cell.

LXR = assay: Luciferase reporter gene transcription via LXR (test for comparison); assay type: cell-based; conditions: up to the concentration of 10 μM
Protocol: (§4) A plasmid for compulsory expression of FXR, a luciferase reporter plasmid and a β-galactosidase expression plasmid for correction of gene transfer were introduced into cultured mammalian cells (293 or CV-1) by conventional methods. The cells after gene transfer were treated with CDCA and compound A. Cell lysates were prepared from the cells that underwent treatment with various concentrations of compound A (0.1-10 μM), and a luciferase activity (corrected based on β-galactosidase activity) in the cell lysate was expressed as an FXR dependent transcriptional activity. In the absence of a drug, the luciferase activity value upon activation with CDCA was taken as 100% and the value in the absence of a ligand was taken as 0%. For a test for comparison, a similar experiment was conducted using an LXR expression plasmid instead of the FXR expression plasmid.

I-BABP gene = assay: Northern blot of I-BABP gene expression in hamster ileum; assay type: in vivo; conditions: 14 days
Protocol: (§5) Male Syrian Golden Hamsters (7 weeks old) were purchased from Japan SLC and preliminarily reared for 2 weeks under a high fat diet load (10% coconut oil, 0.12% cholesterol). After the preliminary rearing, the high fat diet was fed to the hamsters while administering compound A. The drug was prepared into a 0.5% methylcellulose suspension, and forcibly administered orally at 30 or 100 mg/kg/day for 14 consecutive days. At 4, 7, 11 and 14 days from the drug administration, blood was drawn from the orbital vein of the animal and total serum cholesterol value was measured. As a control, a drug non-administration group was prepared and treated similarly, which was followed by measurement of the serum total cholesterol value. At the final day of the test, the liver and the ileum were removed from the animals, from which the total RNA was prepared.
(§6) The total RNA was prepared from animal tissues by AGPC method. The prepared total RNA was electrophoresed on an agarose gel containing 6% formaldehyde and transferred onto a nylon membrane by a capillary blotting method. This membrane was hybridized with ^32P-labeled hamster CYP7A or I-BABP probe in 50% formamide at 42° C. for 16 h and the amounts of CYP7A and I-BABP gene expressions were measured. The CYP7A and I-BABP probes were prepared by RT-PCR method from RNA derived from the liver and the ileum, respectively, of the hamsters.

[4] = tested on: I-BABP gene expression in Caco-2 cells; assay: I-BABP mRNA in Caco-2 cells by Northern blot; assay type: cell-based, human; conditions: 100 μM CDCA, compound A at 10 μM
Protocol: The human colon carcinoma derived cell line, Caco-2, is a cell line differentiated like the small intestine and expresses the I-BABP gene. The I-BABP gene expression in Caco-2 cells is promoted by CDCA and an expression control system of I-BABP gene by FXR is considered to be also present in Caco-2 cells (Makishima, M. et al. Science 284, 1362-5 (1999)). Thus, an action on the I-BABP gene expression of compound A as an FXR antagonist was tested using Caco-2 cells.
The Caco-2 cells were cultured in the presence of 100 μM CDCA, and the expression of I-BABP gene was induced. Thereto was added compound A and changes in the I-BABP gene expression level were examined by measuring the amount of I-BABP mRNA by Northern blot analysis.

[5] = target: T1, FXR ligand binding domain (FXR-LBD) (Homo sapiens, UniProt Q96RI1); assay: FRET assay of CDCA-induced binding of FXR-LBD to coactivator SRC-1; assay type: biochemical; conditions: in the presence of CDCA; compound A 1-50 μM; 4° C., 12 h
T1 construct: GST
T1 sequence (Q96RI1 262-486 limits assumed): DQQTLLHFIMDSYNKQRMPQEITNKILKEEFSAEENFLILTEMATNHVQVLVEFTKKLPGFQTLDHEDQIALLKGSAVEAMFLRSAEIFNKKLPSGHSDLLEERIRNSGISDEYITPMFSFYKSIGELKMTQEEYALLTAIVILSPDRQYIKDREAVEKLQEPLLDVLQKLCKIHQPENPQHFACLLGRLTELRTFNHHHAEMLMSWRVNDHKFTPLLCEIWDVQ
Protocol: (§7) An Eu-labeled FXR ligand binding domain (FXR-LBD) and an APC-labeled coactivator SRC-1 were mixed to the final concentration of 10 nM and 100 nM, respectively, in a buffer [100 mM Hepes (pH 7.6), 0.125% CHAPS, 125 mM NaF] in the presence of ligand CDCA. Thereto were added various concentrations of compound A (1-50 μM), and the mixture was allowed to react at 4° C. for 12 h. After the reaction, it was exposed to an excitation light at 337 nm and the fluorescence at 665 nm and 620 nm was measured, based on which the fluorescence ratio of 665 nm/620 nm was taken as an FRET fluorescence intensity.

FXR = target: T2, FXR (Homo sapiens, UniProt Q96RI1); assay: CDCA-induced luciferase reporter gene transcription via FXR; assay type: cell-based; conditions: 293 or CV-1 cells treated with CDCA; compound A 0.1-10 μM
T2 construct: expressed in transfected cells; host or cells: 293 or CV-1
T2 sequence (Q96RI1 1-486): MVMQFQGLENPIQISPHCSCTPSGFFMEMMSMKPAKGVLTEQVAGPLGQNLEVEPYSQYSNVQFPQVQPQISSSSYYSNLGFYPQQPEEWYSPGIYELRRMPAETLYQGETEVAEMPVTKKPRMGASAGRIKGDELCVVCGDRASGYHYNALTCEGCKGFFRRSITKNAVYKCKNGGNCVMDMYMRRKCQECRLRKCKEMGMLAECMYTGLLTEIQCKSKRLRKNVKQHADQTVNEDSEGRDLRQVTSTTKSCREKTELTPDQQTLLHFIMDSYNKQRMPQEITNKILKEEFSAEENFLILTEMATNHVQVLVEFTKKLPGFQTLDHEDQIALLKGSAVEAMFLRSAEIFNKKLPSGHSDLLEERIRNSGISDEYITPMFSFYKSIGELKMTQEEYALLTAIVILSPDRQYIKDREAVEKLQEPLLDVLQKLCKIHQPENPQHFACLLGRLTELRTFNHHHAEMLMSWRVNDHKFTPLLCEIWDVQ
Protocol: as §4

[6] = tested on: LXR (liver X receptor) ligand binding domain (LXR-LBD); assay: FRET assay with LXR-LBD instead of FXR-LBD (test for comparison); assay type: biochemical; conditions: up to 50 μM
Protocol: as §7
At a concentration of not less than 1 μM, compound A inhibited the binding between FXR-LBD and SRC-1 induced in the presence of CDCA (attenuation of FRET fluorescent intensity). For a test for comparison, a similar experiment was conducted using LXR (liver X receptor) ligand binding domain (LXR-LBD) instead of FXR-LBD.

[7] = Serum total cholesterol in hamsters on high fat diet; assay type: in vivo, hamster; conditions: 14 days, last day of the test
Protocol: as §5
The blood was drawn from the orbital vein of the animals and centrifuged (3000 rpm, 15 min) to prepare the serum. The total cholesterol concentration of the serum was determined by the enzyme method.

CYP7A gene = assay: Northern blot of CYP7A gene expression in hamster liver; assay type: in vivo; conditions: 14 days
Protocol: as §5, §6

SMILES: CC(C)(C)c1cc(C(C)(C)C)c(O)c(NC(=O)c2ccccc2)c1O [compound A, N-(3,5-di-tert-butyl-2,6-dihydroxyphenyl)benzamide]
- amount of CYP7A mRNA (no CDCA = 100, 20 μM CDCA = 0) [1]: 58
- Cmax [2]: 2010 ng/mL
- Tmax [2]: 6 h
- CYP7A protein (Western blot) [3]: Accumulation of CYP7A protein
- excretion of bile acid into the medium (HepG2 cells): promoted the excretion of bile acid
- effect on transcription activity dependent on LXR (LXR): did not influence the transcription activity
- decrease in mRNA level of the I-BABP gene in the ileum relative to the drug non-administration group (I-BABP gene; 30 mg/kg/day p.o.): 11%
- decrease in mRNA level of the I-BABP gene in the ileum relative to the drug non-administration group (I-BABP gene; 100 mg/kg/day p.o.): 16%
- mRNA level of I-BABP (Northern blot) [4]: marked decrease
- concentration at which the binding between FXR-LBD and SRC-1 was inhibited (attenuation of FRET fluorescent intensity) [5]: not less than 1 μM
- concentration at which FXR dependent transcription was repressed (FXR): not less than 1 μM
- effect on FRET fluorescent intensity with LXR-LBD [6]: did not affect the fluorescent intensity
- percent decrease in serum total cholesterol relative to the drug non-administration group ([7]; 30 mg/kg/day p.o.): 28%
- percent decrease in serum total cholesterol relative to the drug non-administration group ([7]; 100 mg/kg/day p.o.): 32%
- increase in mRNA level of the CYP7A gene in the liver relative to the drug non-administration group (CYP7A gene; 30 mg/kg/day p.o.): 53%
- increase in mRNA level of the CYP7A gene in the liver relative to the drug non-administration group (CYP7A gene; 100 mg/kg/day p.o.): 27%
